Reference: patent US20060154236A1, “Computer-assisted analysis” (priority 2004, published 2006)
Starred links: 1 amine or outer side, 2 acyl side, 3 side chain; linkers in the order of their positions; H or OH if unused. Positions of bridges follow the written chain, without caps; N, C: chain ends. Non-standard residues stand in square brackets, D forms with d. Residues, ends and D or L forms follow the SMILES beside them. Chains are numbered I, II in the order given. Actinocin(9to1) = Cc1c2oc3c(C)ccc(C(=O)[*:1])c3nc-2c(C(=O)[*:2])c(N)c1=O; NMeV = CN[C@H](C(=O)O)C(C)C; Nle = CCCC[C@H](N)C(=O)O; Sar = CNCC(=O)O

test system: HeLa (human cancer) cells; test: Cytological dose-response profiling by automated fluorescence microscopy (KS statistic z-scores, 93 descriptors); format: cell-based; conditions: HeLa cells, 20 hrs, thirteen 3-fold dilutions; Y = profile response above signal threshold
Protocol: The known drug set was chosen to cover common mechanisms of toxicity or therapeutic action in cancer and other diseases, and to include several groups with a common target (macromolecule or pathway) but unrelated structures. We analyzed thirteen 3-fold dilutions of each drug, covering a final concentration range on cells from micromolar to picomolar. (Table 3 and Materials & Methods). HeLa (human cancer) cells were cultured in 384-well plates to near confluence, treated with drugs for 20 hrs, fixed, and stained with fluorescent probes for various cell components and processes. We chose 11 distinct probes that covered a range of cell biology, multiplexing a DNA stain and two antibodies per well (the probe sets are: (SC35, anillin), (α-tubulin, actin), (phospho-p38, phospho-ERK), (p53, cFos), (phospho-CREB, calmodulin)). Using automated fluorescence microscopy, we collected images of up to ˜8000 cells from each well. 26 wells on each plate were treated only with DMSO to generate a control population. The experiment was performed twice in parallel to provide a replicate dataset. Image segmentation procedures were used to automatically identify nuclei and nuclear organelles, and cytoplasmic regions were approximated as an annulus surrounding each identified nucleus (FIG. 31A). For each cell, region, and probe, a set of descriptors was measured. These included measures of size, shape, and intensity, as well as ratios of intensities between regions (93 descriptors total, Table S3).
For profiling studies, it is useful to reduce each population of descriptor values to a single number. […] We devised a measure based on the Kolmogorov-Smirnov (KS) statistic, allowing nonparametric comparison of experimental and control distributions from the same plate (FIGS. 31B and 35). […] In particular, the relationship between z-score and the original physical measure may be non-linear.
Cell culture. 20 hours before compound addition, Hela cells grown in […] dishes were trypsinized, resuspended in DMEM supplemented with 10% FCS and 10 ug/mL penicillin/streptomycin, and plated in 384-well plates at an initial density of 3,000 cells per well, 40 uL per well. Compounds were purchased from Sigma (St. Louis, MO), Calbiochem (EMD Biosciences, San Diego, Calif.) and Tocris (Elliksville, MO) and are listed in Table 2. Compound stocks were prepared in DMSO and then arrayed on 384-well plates in 16 consecutive 1:3 serial dilutions in DMSO as outlined in Table 3. The highest and two lowest dilutions (rows A, 0 and P) were not used for subsequent analysis as the wells due to persistent edge effects, leaving us with a series of 13 dilutions. Each stock was diluted 16-fold in warmed culture medium, and 8 μl of this solution was added to the plated cells, resulting in a 96-fold final dilution. All conditions were performed in duplicate in separate plates. Cells were incubated at 37° C. for 20 hours, then fixed in 3% formaldehyde in PBS. All liquid handling was performed using a programmed TekBench (TekCel, Hopkinton, Mass.).
Markers. Five sets of markers were stained by standard immunofluorescence methods in this study.

Row | Structure (SMILES) | Used in clustering (FIG. 33)
1 | CNc1ccc2oc(C[C@H]3O[C@@]4(CC[C@H]3C)O[C@H]([C@H](C)C(=O)c3ccc[nH]3)[C@H](C)C[C@H]4C)nc2c1C(=O)O [Compound 2, A23187 free acid] | Y
2 | Cc1c2oc3c(C)ccc(C(=O)N[C@@H]4C(=O)N[C@H](C(C)C)C(=O)N5CCC[C@H]5C(=O)N(C)CC(=O)N(C)[C@@H](C(C)C)C(=O)O[C@@H]4C)c3nc-2c(C(=O)N[C@@H]2C(=O)N[C@H](C(C)C)C(=O)N3CCC[C@H]3C(=O)N(C)CC(=O)N(C)[C@@H](C(C)C)C(=O)O[C@@H]2C)c(N)c1=O [Compound 4, Actinomycin D] (I: T[dV]P[Sar][NMeV] / II: T[dV]P[Sar][NMeV]; ester I:1-I:C, II:1-II:C; linker I:N-II:N via Actinocin(9to1)) | Y
3 | CCCC[C@@H](C=O)NC(=O)[C@H](CC(C)C)NC(=O)[C@H](CC(C)C)NC(C)=O [Compound 5, N-acetyl-Leu-Leu-norleucinal] (Ac-Leu-Leu-[Nle]-aldehyde) | Y
4 | O=C1Cc2c([nH]c3ccc([N+](=O)[O-])cc23)-c2ccccc2N1 [Compound 6, Alsterpaullone] | Y
5 | COc1ccc(C[C@H]2NC[C@H](O)[C@H]2OC(C)=O)cc1 [Compound 7, Anisomycin] | Y
6 | C[C@H]1CCC/C=C/[C@@H]2C[C@H](O)C[C@H]2[C@H](O)/C=C/C(=O)O1 [Compound 8, Brefeldin A] | Y
7 | COc1cc2c(c(OC)c1OC)-c1ccc(OC)c(=O)cc1[C@@H](NC(C)=O)CC2 [Compound 13, Colchicine] | Y
8 | C[C@@H]1C[C@@H]([C@H](O)CC2CC(=O)NC(=O)C2)C(=O)[C@@H](C)C1 [Compound 14, Cycloheximide] | Y
9 | C=C1[C@@H](C)[C@H]2[C@H](Cc3ccccc3)NC(=O)[C@]23[C@H](OC(C)=O)/C=C/[C@@](C)(O)C(=O)[C@@H](C)C/C=C/[C@H]3[C@@H]1O [Compound 16, Cytochalasin D] | Y
10 | C[C@@H]1C[C@H]2[C@@H]3CCC4=CC(=O)C=C[C@]4(C)[C@@]3(F)[C@@H](O)C[C@]2(C)[C@@]1(O)C(=O)CO [Compound 19, Dexamethasone] | Y
11 | COc1cccc2c1C(=O)c1c(O)c3c(c(O)c1C2=O)C[C@@](O)(C(=O)CO)C[C@@H]3O[C@H]1C[C@H](N)[C@H](O)[C@H](C)O1 [Compound 20, Doxorubicin] | Y
12 | Cc1cc(O)c2c(c1)C(=O)c1cc(O)cc(O)c1C2=O [Compound 22, Emodin] | Y
13 | O=C1Nc2ccccc2/C1=C1/Nc2ccccc2/C1=N\O [Compound 32, Indirubin monoxime] | Y
14 | C/C1=C\[C@H](C)C[C@H](C)OC(=O)C[C@H](c2ccc(O)cc2)NC(=O)[C@@H](Cc2c(Br)[nH]c3ccccc23)N(C)C(=O)[C@H](C)NC(=O)[C@@H](C)C1 [Compound 34, Jasplakinolide] | Y
15 | C/C1=C/C(=O)O[C@@H]2C[C@@H](CC[C@H](C)/C=C\CC1)O[C@@](O)([C@@H]1CSC(=O)N1)C2 [Compound 36, Latrunculin B] | Y
16 | CC[C@H](C)C(=O)O[C@H]1CCC=C2C=C[C@H](C)[C@H](CC[C@@H]3C[C@@H](O)CC(=O)O3)[C@H]21 [Compound 37, Mevastatin] | Y
17 | CCOC(=O)C1=C(C)NC(=S)NC1c1cccc(O)c1 (stereo not drawn) [Compound 39, Monastrol] | Y
18 | C=C1[C@@H](O)[C@@H]2O[C@]3(CC[C@H](/C=C/[C@@H](C)[C@@H]4CC(C)=C[C@@]5(O[C@H](C[C@@](C)(O)C(=O)O)CC[C@H]5O)O4)O3)CC[C@H]2O[C@@H]1[C@@H](O)C[C@H](C)[C@H]1O[C@@]2(CCCCO2)CC[C@H]1C [Compound 41, Okadaic acid] | Y

Row | Structure (SMILES) | Used in clustering (FIG. 33)
19 | CCCCCCCCCCCCCC(=O)O[C@@H]1[C@@H](C)[C@@]2(O)[C@@H](C=C(CO)C[C@]3(O)C(=O)C(C)=C[C@@H]23)[C@@H]2C(C)(C)[C@]12OC(C)=O [Compound 43, PMA] | Y
20 | COc1cc([C@@H]2c3cc4c(cc3[C@H](O)[C@H]3COC(=O)[C@H]23)OCO4)cc(OC)c1OC [Compound 44, Podophyllotoxin] | Y
21 | COc1ccc(C[C@H](N)C(=O)N[C@H]2[C@@H](O)[C@H](n3cnc4c(N(C)C)ncnc43)O[C@@H]2CO)cc1 [Compound 45, Puromycin] | Y
22 | CC1=C(/C=C/C(C)=C/C=C/C(C)=C/C(=O)O)C(C)(C)CCC1 [Compound 48, Retinoic acid (trans)] | Y
23 | CN[C@@H]1C[C@H]2O[C@@](C)([C@@H]1OC)n1c3ccccc3c3c4c(c5c6ccccc6n2c5c31)C(=O)NC4 [Compound 51, Staurosporine] | Y
24 | CC(=O)O[C@H]1C(=O)[C@@]2(C)[C@H]([C@H](OC(=O)c3ccccc3)[C@]3(O)C[C@H](OC(=O)[C@H](O)[C@@H](NC(=O)c4ccccc4)c4ccccc4)C(C)=C1C3(C)C)[C@]1(OC(C)=O)CO[C@@H]1C[C@@H]2O [Compound 53, Taxol] | Y
25 | CC(/C=C/C(=O)NO)=C\[C@@H](C)C(=O)c1ccc(N(C)C)cc1 [Compound 54, Trichostatin] | Y
26 | CC[C@]1(O)C[C@@H]2CN(CCc3c([nH]c4ccccc34)[C@@](C(=O)OC)(c3cc4c(cc3OC)N(C)[C@H]3[C@@](O)(C(=O)OC)[C@H](OC(C)=O)[C@]5(CC)C=CCN6CC[C@]43[C@@H]65)C2)C1 [Compound 57, Vinblastine] | Y
27 | CN(C)CCCN1c2ccccc2Sc2ccc(Cl)cc21 [Compound 62, Chloropromazine] | Y
28 | COc1cccc(-c2cc(=O)c3ccccc3o2)c1N [Compound 63, PD98059] | Y
29 | CN1CCN(C2=Nc3cc(Cl)ccc3Nc3ccccc32)CC1 [Compound 64, Clozapine] | Y
30 | CCC(C)(C)C(=O)O[C@H]1C[C@@H](C)C=C2C=C[C@H](C)[C@H](CC[C@@H]3C[C@@H](O)CC(=O)O3)[C@H]21 [Compound 70, Simavastatin] | Y
31 | CCC(=O)CCCCC[C@@H]1NC(=O)[C@H]2CCCCN2C(=O)[C@H]([C@@H](C)CC)NC(=O)[C@H](Cc2cn(OC)c3ccccc23)NC1=O [Compound 76, Apicidin] | Y
32 | C/C(=C\c1csc(C)n1)[C@@H]1C[C@@H]2O[C@]2(C)CCC[C@H](C)[C@H](O)[C@@H](C)C(=O)C(C)(C)[C@@H](O)CC(=O)O1 [Compound 77, Epothilone B] | Y
33 | NS(=O)(=O)c1ccc(-n2nc(C(F)(F)F)cc2-c2ccc(Cl)cc2)cc1 [Compound 79, SC236] | Y
34 | C[S+]([O-])c1ccc(-c2nc(-c3ccncc3)c(-c3ccc(F)cc3)[nH]2)cc1 (stereo not drawn) [Compound 80, SB203580] | Y
35 | C[C@@]1(CO)[C@H](O)CC[C@@]2(C)[C@H]1CC[C@H]1C[C@@H]3C[C@@]12CC[C@]3(O)CO [Compound 81, Aphidicolin] | Y
36 | CN(Cc1cnc2nc(N)nc(N)c2n1)c1ccc(C(=O)N[C@@H](CCC(=O)O)C(=O)O)cc1 [Compound 83, Methotrexate] | Y
